Measurements published in PubChem BioAssay (NCI).
Values joined by “and” are separate entries in the source; they are usually repeats but may differ in a detail not shown here. Identical values can stand only once.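 Dose response: 5 concentrations. Exposure: 48 h. Format: 96-well plates. Endpoint: linear interpolation; highest concentration if not reached. Abbreviation: GI50, concentration required for 50% inhibition of growth. TGI: concentration producing complete growth inhibition.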

How the values were obtained:
Assay in all cases: DTP human tumour cell line panel, 48 h
[1] = tested on: OVCAR-8 ovarian
[2] = tested on: COLO 205 colon
[3] = tested on: EKVX NSCLC
[4] = tested on: RXF 393 renal
[5] = tested on: SK-MEL-28 melanoma
[6] = tested on: OVCAR-4 ovarian
[7] = tested on: CCRF-CEM leukemia
[8] = tested on: M14 melanoma
[9] = tested on: NCI/ADR-RES ovarian
[10] = tested on: MDA-MB-435

Structure (SMILES)	TGI [1] [µM]	TGI [2]	TGI [3] [µM]	TGI [4] [µM]	TGI [5]	TGI [6] [µM]	TGI [7] [µM]	TGI [8] [µM]	GI50 [2] [µM]	GI50 [5] [µM]	GI50 [6] [µM]	GI50 [7] [µM]	GI50 [8] [µM]	GI50 [9] [µM]	GI50 [1] [µM]	GI50 [3] [µM]	GI50 [10] [µM]	TGI [10] [µM]	TGI [9] [µM]
COc1ccc2oc3c(OC)c(OC)c(OC)cc3c(=O)c2c1	> 100	> 100 µM	> 100	84.4	> 100 µM	> 100	> 100	> 100											
Cc1cc(-c2c(F)cc3c4nn([C@H]5CC[C@@H](N(C)C)CC5)c(=O)c-4cn(C4CC4)c3c2F)cc(C)n1	0.808	0.0936 µM and 0.889 µM	5.96	1.39	0.368 µM and 3.34 µM				0.0366	0.0689	0.316	0.0033	0.0539						
COc1cc(OC)cc(C2C3=C(COC3=O)Nc3cc(OC)ccc32)c1 (centres undefined)	> 37.5	< 0.01 µM	> 100		> 94.2 µM	37.6	> 100	0.0111	< 0.01	< 0.01	< 0.01	< 0.01	< 0.01	< 0.01	< 0.0143	< 0.01	< 0.01	< 0.01	
COCCOc1cc(C)cc(/C=C(C)/C=C/C2=C(C)CCCC2(C)C)n1	> 100	> 100 µM	> 100	> 100	> 100 µM	> 100		> 100											
NC1c2ccccc2Nc2ccccc21	17.1	6.52 µM	20.7	15.9	14.2 µM		25.7	15.4											
N#Cc1ccccc1NC(=O)C(=O)C1NC(=S)NC1=O (centres undefined)	> 100	> 100 µM	> 100	> 100	> 100 µM	> 100	> 100	> 100											
COc1cc(/C=C/c2ccc(O)c(OC)c2)cc(OC)c1	> 100	> 100 µM	> 100	> 100	> 100 µM	> 100	> 100	70.8											> 100
CC1OC(=O)C(O)=C1O (centres undefined)	> 100	> 100 µM	> 100	> 100		> 100	> 100	> 100											
CC1=C(C(=O)Nc2ccccc2)C(c2ccccc2Cl)C(C(=O)Nc2ccccc2)=C(C)N1	91.8	34.3 µM	37.7		61.9 µM	> 100	62.1	33.3											
CC(C)c1cccc(C(C)C)c1N1C(=O)C(=O)C(c2nc3ccccc3o2)C(=O)C1=O	> 100	> 100 µM	> 100	> 100	> 100 µM	> 100	> 100	> 100											
Cc1ccc2nc(NC(=O)C(=O)C(C#N)c3ccc(Cl)cc3)sc2c1 (centres undefined)	> 50	> 50 µM	> 50	> 50	> 50 µM	> 50		> 50											
O=[N+]([O-])c1ccc(Cl)c(CNc2ncnc3c2ncn3C2CCCCO2)c1 (centres undefined)	> 100	> 100 µM	> 100	42.6	> 100 µM	> 100		> 100										30.3	> 100
